From patent publication US20170008888A1 (KYORIN PHARMACEUTICAL CO., LTD., priority 2014, published 2017)
pEC50, pIC50: −log10 of the molar value.

Assays:
[1] = target: T1, recombinant human ERK5 catalytic domain (Homo sapiens, UniProt Q13164); assay: Recombinant human ERK5 radiometric (HotSpot) assay; assay type: biochemical; settings: 10 μM ATP, 20 μM myelin basic protein substrate; read-out: rhERK5 IC50
T1 construct: Recombinant human ERK5 catalytic domain radiometric assays; purchased Reaction Biology, Corp (Malvern, Pa.), which ran the assay as a service
Experimental: In this example, potency of the compounds in recombinant human ERK5 was assayed.
Recombinant human ERK5 catalytic domain radiometric assays were performed by Reaction Biology, Corp (Malvern, Pa.). The HotSpot radiometric assay is based on conventional filter-binding assays (Nature Biotechnology (2011) 29: 1039-1045). Compounds were tested at 20 μM down by ⅓ in a 10 point serial dilution series. Briefly, [γ-33P]-ATP was used as the tracer along with 10 μM cold ATP to label ERK5 in the presence of 20 μM myelin basic protein substrate.

[2] = tested on: human PBMCs; assay: Human PBMC TNF-α response to endotoxin (ELISA); assay type: cell-based; settings: 0.1 μg/ml LPS 16 h, read-out: EC50 for the inhibition of the human PBMC TNF-α response to endotoxin, ave. ± S.D.
Method in brief: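 PBMCs at 2e6 cells/ml in RPMI 1640 with 10% charcoal-dextran-treated FBS were pre-treated 1 h at 37 °C with compound (4-point 1:5 dilution from 10 μM). Stimulation with 0.1 μg/ml E. coli 0111:B4 LPS for 16 h; TNF-α measured by ELISA (A450) in 25-fold diluted supernatant.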

[3] = target: T2, BRD4 bromodomain domain I [BRD4(1)] (Homo sapiens, UniProt O60885); assay: BRD4 bromodomain domain 1 inhibition assay (TR-FRET); assay type: binding; settings: screening concentration 10 μM
T2 construct: BRD4 bromodomain domain I [BRD4(1)]; purchased Cayman Chemicals
Experimental: The inhibitory activity of test compounds on the bromodomain, BRD4 bromodomain domain I [BRD4(1)], were determined via TR-FRET after a slight modification of the manufacturer's protocol (Cayman Chemicals, Ann Arbor, Mich.). Briefly, compounds were diluted to a 20× ([…]) concentration in DMSO. 100 nL of 20× compounds were then dry stamped into triplicate wells of black, low volume 384 well plates (Aurora Biotechnologies, Carlsbad, Calif.) using the Mosquito liquid handler (TPP Labtech, Melbourn, UK). 20× compounds were then diluted to a 4× (40 μM) concentration in Assay Buffer to result in 2% DMSO content. […] JQ1 at 10 μM or 0.5% DMSO final concentrations were used as the positive and negative controls, respectively, to set the assay window. The fluorescence was read in a time-resolved format on the Biotec Synergy 2 plate reader by exciting the signal at 340 nm and reading emissions at 620 and 670, using a 100 μs delay and 200 μs read window. […] Briefly, TR-FRET ratio values were normalized to the average TR-FRET ratio value given by 10 μM JQ1. […]

[4] = tested on: AurB or AurC; assay: Probe-based (AX9989) kinase profiling in Jurkat lysate: AurB or AurC; assay type: binding
Method in brief: (§1)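 Gel-filtered Jurkat lysate (HEPES pH 7.5, 20 mM MnCl2, 5 mg/ml) was pre-incubated 15 min with compound at room temperature, then labelled with 5 μM acyl-phosphate ATP probe AX9989. Tryptic probe-labelled active-site peptides were streptavidin-captured and quantified by LC/MS. Percent inhibition reflected the decrease in labelled-peptide intensity versus no compound.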

[5] = tested on: AMPKa1 or AMPKa2; assay: Probe-based (AX9989) kinase profiling in Jurkat lysate: AMPKa1 or AMPKa2; assay type: binding
Method in brief: as §1

[6] = target: T3, TAO2 (Homo sapiens, UniProt Q9UL54); assay: Probe-based (AX9989) kinase profiling in Jurkat lysate: TAO2; assay type: binding; settings: read-out: Kinase inhibition % at indicated screening concentration: TAO2
T3 construct: screened for activity against several kinases in Jurkat cells; endogenous in cells; host or cells: Jurkat cell lysate
T3 sequence (Q9UL54 1-1235): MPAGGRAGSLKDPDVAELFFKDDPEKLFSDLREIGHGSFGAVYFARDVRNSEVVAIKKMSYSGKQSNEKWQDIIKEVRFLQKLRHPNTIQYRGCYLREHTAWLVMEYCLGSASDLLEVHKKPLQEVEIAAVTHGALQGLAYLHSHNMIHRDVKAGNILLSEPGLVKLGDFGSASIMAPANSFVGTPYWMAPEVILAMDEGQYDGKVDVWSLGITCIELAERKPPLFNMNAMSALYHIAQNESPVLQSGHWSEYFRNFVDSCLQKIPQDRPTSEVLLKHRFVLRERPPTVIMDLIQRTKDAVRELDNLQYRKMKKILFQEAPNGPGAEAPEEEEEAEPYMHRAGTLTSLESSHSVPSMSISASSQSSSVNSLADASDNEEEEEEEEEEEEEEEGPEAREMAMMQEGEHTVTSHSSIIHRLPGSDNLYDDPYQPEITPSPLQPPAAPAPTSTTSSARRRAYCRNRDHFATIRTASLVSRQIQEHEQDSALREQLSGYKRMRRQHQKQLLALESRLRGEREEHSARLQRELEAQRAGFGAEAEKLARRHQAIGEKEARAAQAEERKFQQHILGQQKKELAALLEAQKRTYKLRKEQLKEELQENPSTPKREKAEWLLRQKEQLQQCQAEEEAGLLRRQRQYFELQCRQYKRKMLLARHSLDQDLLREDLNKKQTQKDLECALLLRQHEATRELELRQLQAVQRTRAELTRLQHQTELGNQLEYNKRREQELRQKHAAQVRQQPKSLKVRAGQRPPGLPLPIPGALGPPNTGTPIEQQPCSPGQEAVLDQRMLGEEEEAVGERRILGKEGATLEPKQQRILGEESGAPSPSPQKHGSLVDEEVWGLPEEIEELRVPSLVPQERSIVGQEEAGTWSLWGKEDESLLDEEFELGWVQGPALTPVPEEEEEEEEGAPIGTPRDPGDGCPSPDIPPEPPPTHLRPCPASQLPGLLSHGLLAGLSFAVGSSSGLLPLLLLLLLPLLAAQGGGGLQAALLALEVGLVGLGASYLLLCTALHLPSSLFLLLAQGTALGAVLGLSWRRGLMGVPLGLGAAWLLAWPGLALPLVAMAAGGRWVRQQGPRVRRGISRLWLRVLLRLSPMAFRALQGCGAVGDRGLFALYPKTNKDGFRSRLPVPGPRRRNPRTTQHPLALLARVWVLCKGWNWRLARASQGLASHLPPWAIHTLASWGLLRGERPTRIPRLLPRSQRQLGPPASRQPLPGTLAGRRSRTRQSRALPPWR
Method in brief: as §1

[7] = target: T4, ERK5 (Homo sapiens, UniProt Q13164); assay: Probe-based (AX9989 acyl phosphate ATP probe) kinase profiling in Jurkat lysate: ERK5; assay type: binding; settings: for pIC50: calculated from percent inhibition of AX9989 labeling and the screening concentration, Jurkat lysate
T4 construct: screened for activity against several kinases in Jurkat cells; endogenous in cells; host or cells: Jurkat cell lysate
Method in brief: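 Gel-filtered Jurkat lysate (5 mg/ml, 20 mM MnCl2) preincubated 15 min at room temperature with compound, then labelled with 5 μM AX9989 acyl phosphate ATP probe. Probe-labelled ERK5 active-site peptides quantified by LC/MS after trypsin digestion and streptavidin capture; IC50 calculated from percent inhibition at the screening concentration.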

[8] = target: T5, JAK1 (Homo sapiens, UniProt P23458); assay: Probe-based (AX9989) kinase profiling in Jurkat lysate: JAK1; assay type: binding; settings: read-out: Kinase inhibition % at indicated screening concentration: JAK1
T5 construct: screened for activity against several kinases in Jurkat cells; endogenous in cells; host or cells: Jurkat cell lysate
Method in brief: as §1

[9] = target: T6, ACK (Homo sapiens, UniProt Q07912); assay: Probe-based (AX9989) kinase profiling in Jurkat lysate: ACK; assay type: binding; settings: read-out: Kinase inhibition % at indicated screening concentration: ACK
T6 construct: screened for activity against several kinases in Jurkat cells; endogenous in cells; host or cells: Jurkat cell lysate
Method in brief: as §1

[10] = tested on: ABL or ARG; assay: Probe-based (AX9989) kinase profiling in Jurkat lysate: ABL or ARG; assay type: binding
Method in brief: as §1

[11] = target: T7, AurA (Homo sapiens, UniProt O14965); assay: Probe-based (AX9989) kinase profiling in Jurkat lysate: AurA; assay type: binding; settings: read-out: Kinase inhibition % at indicated screening concentration: AurA
T7 construct: screened for activity against several kinases in Jurkat cells; endogenous in cells; host or cells: Jurkat cell lysate
T7 sequence (O14965 1-403): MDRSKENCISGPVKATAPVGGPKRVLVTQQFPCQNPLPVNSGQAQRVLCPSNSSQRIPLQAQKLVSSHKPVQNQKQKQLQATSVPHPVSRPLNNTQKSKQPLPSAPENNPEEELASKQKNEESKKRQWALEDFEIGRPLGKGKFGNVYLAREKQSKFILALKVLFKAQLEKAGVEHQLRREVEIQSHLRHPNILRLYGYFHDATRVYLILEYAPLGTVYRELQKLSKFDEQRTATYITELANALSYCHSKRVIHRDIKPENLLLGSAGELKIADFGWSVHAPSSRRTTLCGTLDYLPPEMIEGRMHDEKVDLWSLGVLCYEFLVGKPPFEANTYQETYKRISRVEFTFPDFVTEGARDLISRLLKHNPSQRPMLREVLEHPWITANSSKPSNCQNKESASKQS
Method in brief: as §1

T4 sequence (Q13164 whole entry): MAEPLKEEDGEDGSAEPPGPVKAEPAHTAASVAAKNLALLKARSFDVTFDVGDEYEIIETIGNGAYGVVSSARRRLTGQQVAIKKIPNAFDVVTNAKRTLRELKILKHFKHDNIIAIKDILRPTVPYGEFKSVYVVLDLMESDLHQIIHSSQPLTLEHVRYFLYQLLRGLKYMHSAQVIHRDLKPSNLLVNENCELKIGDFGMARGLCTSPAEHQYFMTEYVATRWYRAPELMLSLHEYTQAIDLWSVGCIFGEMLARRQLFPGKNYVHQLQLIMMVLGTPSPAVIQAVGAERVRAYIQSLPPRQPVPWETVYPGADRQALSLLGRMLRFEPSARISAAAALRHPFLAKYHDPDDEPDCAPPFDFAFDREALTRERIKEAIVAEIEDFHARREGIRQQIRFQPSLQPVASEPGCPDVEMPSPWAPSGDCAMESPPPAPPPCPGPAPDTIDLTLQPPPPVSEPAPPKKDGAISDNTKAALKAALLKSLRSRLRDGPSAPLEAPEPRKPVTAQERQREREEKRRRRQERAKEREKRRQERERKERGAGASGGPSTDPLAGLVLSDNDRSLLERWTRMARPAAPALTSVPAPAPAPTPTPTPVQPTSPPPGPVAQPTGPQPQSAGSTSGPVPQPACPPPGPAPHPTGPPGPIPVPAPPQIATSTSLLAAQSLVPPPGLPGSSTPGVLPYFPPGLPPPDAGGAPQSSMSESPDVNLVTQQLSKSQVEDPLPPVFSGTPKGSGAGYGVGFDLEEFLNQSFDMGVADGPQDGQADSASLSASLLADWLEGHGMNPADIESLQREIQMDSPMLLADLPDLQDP
T1 sequence (Q13164 55-347 limits assumed): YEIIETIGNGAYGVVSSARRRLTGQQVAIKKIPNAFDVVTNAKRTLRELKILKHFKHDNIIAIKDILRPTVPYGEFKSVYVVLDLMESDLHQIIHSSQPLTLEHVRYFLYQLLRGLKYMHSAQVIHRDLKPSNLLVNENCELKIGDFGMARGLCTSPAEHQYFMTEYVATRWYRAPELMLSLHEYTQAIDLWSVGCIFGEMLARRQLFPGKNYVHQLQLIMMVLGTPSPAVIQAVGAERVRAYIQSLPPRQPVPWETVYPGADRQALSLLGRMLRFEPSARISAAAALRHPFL
T5 sequence (P23458 whole entry): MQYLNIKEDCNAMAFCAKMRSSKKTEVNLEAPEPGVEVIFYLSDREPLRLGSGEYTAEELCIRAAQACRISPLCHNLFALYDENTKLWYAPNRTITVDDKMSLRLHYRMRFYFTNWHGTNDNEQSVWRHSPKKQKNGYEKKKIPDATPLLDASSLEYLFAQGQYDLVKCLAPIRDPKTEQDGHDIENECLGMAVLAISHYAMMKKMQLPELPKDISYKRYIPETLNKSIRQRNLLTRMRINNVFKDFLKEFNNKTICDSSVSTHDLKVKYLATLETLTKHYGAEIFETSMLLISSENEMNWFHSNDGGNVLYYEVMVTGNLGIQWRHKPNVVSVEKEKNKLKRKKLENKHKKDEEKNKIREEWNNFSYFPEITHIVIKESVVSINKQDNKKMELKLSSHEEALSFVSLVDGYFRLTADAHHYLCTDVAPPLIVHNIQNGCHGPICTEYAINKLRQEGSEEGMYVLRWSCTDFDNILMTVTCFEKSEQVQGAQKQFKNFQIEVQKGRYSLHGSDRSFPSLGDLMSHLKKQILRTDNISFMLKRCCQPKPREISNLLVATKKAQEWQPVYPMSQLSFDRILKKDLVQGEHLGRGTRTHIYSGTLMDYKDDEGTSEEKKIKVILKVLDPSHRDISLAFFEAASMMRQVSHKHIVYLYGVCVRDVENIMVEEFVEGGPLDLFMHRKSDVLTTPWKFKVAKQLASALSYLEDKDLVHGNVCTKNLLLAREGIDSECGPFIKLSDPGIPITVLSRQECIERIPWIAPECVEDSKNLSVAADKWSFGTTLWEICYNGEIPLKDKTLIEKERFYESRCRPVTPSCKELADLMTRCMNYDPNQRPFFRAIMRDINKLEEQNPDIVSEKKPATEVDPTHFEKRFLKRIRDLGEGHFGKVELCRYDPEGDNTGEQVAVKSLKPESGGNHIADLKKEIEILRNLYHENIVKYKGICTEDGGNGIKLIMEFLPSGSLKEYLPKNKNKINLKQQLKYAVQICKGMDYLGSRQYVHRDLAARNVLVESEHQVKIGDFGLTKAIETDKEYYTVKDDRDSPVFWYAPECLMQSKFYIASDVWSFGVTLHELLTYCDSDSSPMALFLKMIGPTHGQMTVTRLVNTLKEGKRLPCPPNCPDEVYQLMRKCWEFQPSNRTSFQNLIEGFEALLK
T6 sequence (Q07912 whole entry): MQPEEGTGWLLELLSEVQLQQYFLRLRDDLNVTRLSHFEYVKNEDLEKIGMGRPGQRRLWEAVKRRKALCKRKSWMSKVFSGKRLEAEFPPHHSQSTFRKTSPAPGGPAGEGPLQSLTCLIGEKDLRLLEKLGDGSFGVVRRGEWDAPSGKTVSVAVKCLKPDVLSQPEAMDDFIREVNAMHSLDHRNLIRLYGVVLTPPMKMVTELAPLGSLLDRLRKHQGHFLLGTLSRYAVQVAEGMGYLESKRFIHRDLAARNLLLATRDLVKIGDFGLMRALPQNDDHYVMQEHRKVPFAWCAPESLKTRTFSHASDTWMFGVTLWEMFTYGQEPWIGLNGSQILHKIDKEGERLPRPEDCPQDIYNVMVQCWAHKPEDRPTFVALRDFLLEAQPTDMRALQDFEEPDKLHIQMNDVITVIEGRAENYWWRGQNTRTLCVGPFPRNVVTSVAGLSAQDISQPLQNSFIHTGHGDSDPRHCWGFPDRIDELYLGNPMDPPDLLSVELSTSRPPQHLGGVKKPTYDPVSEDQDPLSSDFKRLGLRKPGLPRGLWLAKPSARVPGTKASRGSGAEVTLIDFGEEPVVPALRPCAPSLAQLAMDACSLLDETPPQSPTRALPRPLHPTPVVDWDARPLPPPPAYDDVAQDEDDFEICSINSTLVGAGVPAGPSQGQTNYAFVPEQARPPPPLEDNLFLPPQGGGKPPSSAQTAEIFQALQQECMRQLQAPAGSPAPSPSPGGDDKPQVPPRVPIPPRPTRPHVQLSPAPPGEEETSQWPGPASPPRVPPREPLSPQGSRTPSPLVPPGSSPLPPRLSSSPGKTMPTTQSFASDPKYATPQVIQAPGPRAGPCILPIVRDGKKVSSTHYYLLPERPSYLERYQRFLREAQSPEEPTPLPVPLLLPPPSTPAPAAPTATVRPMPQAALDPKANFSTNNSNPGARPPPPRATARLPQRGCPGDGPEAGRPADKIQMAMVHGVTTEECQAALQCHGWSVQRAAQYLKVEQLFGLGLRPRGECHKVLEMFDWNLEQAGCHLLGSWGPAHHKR

## CCOc1cc(C(=O)N2CCN(c3ccccn3)CC2)ccc1Nc1cc2c(cn1)N(C)C(=O)c1ccccc1N2C [Compound T35]
[1]
  pIC50: 7.30 to 7.70
[2]
  pEC50: 6.18

## CCOc1cc(C(=O)N2CCC[C@H](O)C2)ccc1Nc1cc2c(cn1)N(C)C(=O)c1scnc1N2C [Compound T13]
[1]
  pIC50: 6.70 to 7.30
[2]
  pEC50: 6.02

## CCOc1cc(C(=O)N2CCN(c3cccnc3)CC2)ccc1Nc1cc2c(cn1)N(C)C(=O)c1ccccc1N2C [Compound T36]
[1]
  pIC50: > 7.70
[2]
  pEC50: 6.96

## CCOc1cc(C(=O)N2CCN(CCOC)CC2)ccc1Nc1cc2c(cn1)N(C)C(=O)c1ccccc1N2C [Compound T16]
[1]
  pIC50: 7.30 to 7.70
[2]
  pEC50: 6.04

## CCOc1cc(C(=O)N2CCC(N3CCCNCC3)CC2)ccc1Nc1cc2c(cn1)N(C)C(=O)c1ccccc1N2C [Compound T45]
[1]
  pIC50: > 7.70
[2]
  pEC50: 5.83

## CCOc1cc(C(=O)N2CCNC(C)CC2)ccc1Nc1cc2c(cn1)N(C)C(=O)c1ccccc1N2C (stereo not drawn) [Compound T46]
[1]
  pIC50: > 7.70
[2]
  pEC50: 6.22

## CCCOc1cc(C(=O)N2CCC(N3CCN(C)CC3)CC2)ccc1Nc1cc2c(cn1)N(C)C(=O)c1ccccc1N2C [Compound T41]
[1]
  pIC50: 7.30 to 7.70
[2]
  pEC50: 6.43

## CCOc1cc(C(=O)N2CCC(N(C)CCO)CC2)ccc1Nc1cc2c(cn1)N(C)C(=O)c1ccccc1N2C [Compound T38]
[1]
  pIC50: 7.30 to 7.70
[2]
  pEC50: 6.49

## CN1CCC(c2ccc(Nc3cc4c(cn3)N(C)C(=O)c3ccccc3N4C)cc2)CC1 [Compound 92]
[3]
  inhibition at 10 µM: 70 to 85%
[4]; screening concentration 1.0 μM
  Kinase inhibition % at indicated screening concentration: AurB or AurC: C (C is >50% to ≦75%)
[5]; screening concentration 1.0 μM
  Kinase inhibition % at indicated screening concentration: AMPKa1 or AMPKa2: E (E is ≦35%)
[6]; screening concentration 1.0 μM
  inhibition at 1 µM: 50 to 75%
[7]
  pIC50: ≥ 7.30
[7]; screening concentration 1.0 μM, read-out: Kinase inhibition % at indicated screening concentration: ERK5
  inhibition at 1 µM: > 90%
[8]; screening concentration 1.0 μM
  inhibition at 1 µM: 35 to 50%
[9]; screening concentration 1.0 μM
  inhibition at 1 µM: ≤ 35%
[10]; screening concentration 1.0 μM
  Kinase inhibition % at indicated screening concentration: ABL or ARG: E (E is ≦35%)
[11]; screening concentration 1.0 μM
  inhibition at 1 µM: ≤ 35%

## CCOc1cc(C(=O)N2CCC(NC3CC3)C2)ccc1Nc1cc2c(cn1)N(C)C(=O)c1ccccc1N2C (stereo not drawn) [Compound 20]
[3]
  inhibition at 10 µM: 70 to 85%
[4]; screening concentration 0.1 μM
  Kinase inhibition % at indicated screening concentration: AurB or AurC: E (E is ≦35%)
[5]; screening concentration 0.1 μM
  Kinase inhibition % at indicated screening concentration: AMPKa1 or AMPKa2: E (E is ≦35%)
[6]; screening concentration 0.1 μM
  inhibition at 0.1 µM: ≤ 35%
[7]
  pIC50: ≥ 7.30
[7]; screening concentration 0.1 μM, read-out: Kinase inhibition % at indicated screening concentration: ERK5
  inhibition at 0.1 µM: 75 to 90%
[8]; screening concentration 0.1 μM
  inhibition at 0.1 µM: ≤ 35%
[9]; screening concentration 0.1 μM
  inhibition at 0.1 µM: ≤ 35%
[10]; screening concentration 0.1 μM
  Kinase inhibition % at indicated screening concentration: ABL or ARG: E (E is ≦35%)
[11]; screening concentration 0.1 μM
  inhibition at 0.1 µM: ≤ 35%
